In patent publication US7858741B2, “Stabilization of the collagen triple helix by O-methylation of hydroxyproline residues” (Wisconsin Alumni Research Foundation, priority 2008, dated 2010):
Like-named read-outs stand apart in the source and are kept apart here. Marks after values point to notes of the source that are not given here. Blank lines part the entries; values can stand above or below the molecule they belong to.

Key:
[1] = cited from earlier work
[2] = cited from earlier work; remark: listed apart in the source
[3] = Thermal denaturation of collagen triple helices by circular dichroism (Tm); type: physicochemical; conditions: for Tm, water / Tm, EG(aq): circular dichroism, peptide 200 μM; for Tm, water: 50 mM HOAc (pH 3.0); for Tm, EG(aq): 2:1 EG/50 mM HOAc (pH 3.0)
Protocol: CD spectra were recorded with an Aviv 202SF circular dichroism spectrometer. Spectra were recorded on peptide solutions (100 μM in 50 mM HOAc (pH 2.9)) that had been incubated at ≦4° C. for ≧48 h in 1-nm increments with a 3-s averaging time, 1-nm bandpass, and 0.1-cm pathlength. Samples for thermal stability experiments were generated by incubating peptide solutions (200 μM) at 4° C. for ≧48 h. The solutions were then heated from 4° C. to 97° C. (for samples in 50 mM HOAc (aq) (pH 2.9)) or to 106° C. (for samples in 2:1 ethylene glycol/50 mM HOAc(aq)) at 3-° C. increments with a 5-min equilibration at each step. The ellipticity at 225 nm was monitored with a 5-s averaging time, 1-nm bandpass, and 0.1-cm pathlength. Values of Tm were determined by fitting the data to a two-state model. (See Becktel and Schellman Biopolymers 26:1859-1877 (1987)).

[4] = Sakakibara et al. (1973); cited from earlier work
[5] = cited from earlier work; for ΔG: values from Nishi et al. (2005) (Kobayashi and coworkers); for ΔG / TΔS / ΔH: normalized to T°=71.9° C.; for TΔS / ΔH: values from Nishi et al. (2005)
[6] = Differential scanning calorimetry (DSC) of triple-helix unfolding; type: physicochemical; conditions: for Tm (DSC exotherm maxima): scan rate 15° C./h; for TΔS / ΔH / ΔG: DSC
Protocol: DSC measurements were conducted on a VP-DSC instrument (MicroCal, LLC, Northampton, Mass.). For each peptide, an instrument baseline was established by filling both the sample and the reference cell with degassed 50 mM HOAc(aq) (pH 2.9) and scanning from 5-98° C. at 15° C./h until at least 3 consecutive overlaying scans were observed. The last of these scans was used as the baseline for each subsequent peptide scan.
Peptide solutions (˜0.5 mg/mL in 50 mM HOAc(aq)), incubated at 4° C. for ≧48 h, were degassed and loaded into the sample cell (without removing the reference solution) during the cool down from the final baseline scan (at ˜15° C.). Samples were scanned from 5-98° C. at 15° C./h; the first scan of each sample was used in the analysis. […] Nevertheless, a second run with a fresh sample (incubated at 4° C. for ≧48 h) gave a trace that overlaid with the initial scan for both peptides.
After DSC measurements, peptide concentrations were determined by quantitative amino acid analysis (Scientific Research Consortium, Inc., St. Paul, Minn.). Peptide concentrations of 231 μM for (ProHypGly)10 and 129 μM for (ProMopGly)10 were calculated from the average of Gly and Pro content.
Data processing was done using the MicroCal software in the Origin 7 program (OriginLab Corp., Northampton, Mass.). For each sample, the appropriate reference scan was subtracted from the sample scan and the data were normalized to the monomer concentrations (determined above).
Values of ΔH (per mole of monomer) were obtained by direct integration of the DSC exotherms. Using ΔH and the exotherm maxima as the Tm (64.3° C. for (ProHypGly)10 and 73.8° C. for (ProMopGly)10), TΔS (at Tm) was calculated with the equation: Tm=ΔH/(ΔS+R·1n(0.75c^2)), where c is the concentration of monomeric peptide. (See Engel and Bäichinger P. Top. Curr. Chem. 247:7-33 (2005)). Values of ΔG were then calculated with the equation: ΔG=ΔH−TΔS. […] (See Nishi et. al. (2005)). The data of Kobayashi and coworkers were normalized to T°=71.9° C. (which is the T° for (ProProGly)10, i.e. where ΔG=0). Because our thermodynamic data for (ProMopGly)10 were determined at nearly the same temperature (73.8° C.), comparisons of the three peptides are meaningful.

[7] = Crystal structure conformation (main-chain dihedral angles, n→π* geometry); type: physicochemical; conditions: crystalline Ac-Mop-OMe
Protocol: [^13CH3]Ac-Mop-OMe (10 mg) was dissolved in 1:1 CH2Cl2/hexanes (1 mL) and the solution was allowed to stand at room temperature in a loosely-capped vial. Slow evaporation afforded crystals suitable for X-ray analysis after ˜72 h (all solvent had evaporated).
A colorless crystal with approximate dimensions 0.49×0.41×0.23 mm^3 was selected under oil under ambient conditions and attached to the tip of a nylon loop. The crystal was mounted in a stream of cold N2 (g) at 100(2) K and centered in the X-ray beam by using a video camera.
The crystal evaluation and data collection were performed on a Bruker CCD-1000 diffractometer with Mo Kα (λ=0.71073 Å) radiation and the diffractometer-to-crystal distance of 4.9 cm.
The initial cell constants were obtained from three series of scans at different starting angles. Each series consisted of 20 frames collected at intervals of 0.3° in a 6° range about ω with the exposure time of 10 s per frame. A total of 69 reflections were obtained. The reflections were indexed successfully by an automated indexing routine built in the SMART program. The final cell constants were calculated from a set of 4805 strong reflections from the actual data collection.
Data were collected by using the full-sphere data collection routine. The reciprocal space was surveyed to the extent of a full sphere to a resolution of 0.80 Å. A total of 6155 data were harvested by collecting three sets of frames with 0.3° scans in ω and ? with an exposure time 10 s per frame. These highly redundant datasets were corrected for Lorentz and polarization effects. The absorption correction was based on fitting a function to the empirical transmission surface as sampled by multiple equivalent measurements. (Bruker-AXS. (2000-2003) SADABS V.2.05, SAINT V.6.22, SHELXTL V.6.10 & SMART 5.622 Software Reference Manuals. Bruker-AXS, Madison, Wis., USA.)
The systematic absences in the diffraction data were consistent for the space groups P21 and P21/m.
A successful solution by the direct methods provided most non-hydrogen atoms from the E-map. The remaining non-hydrogen atoms were located in an alternating series of least-squares cycles and difference Fourier maps. All non-hydrogen atoms were refined with anisotropic displacement coefficients. All hydrogen atoms were found in the difference map and refined independently. The absolute configuration was assigned from the known synthetic procedure.
The final difference Fourier map was featureless. The molecular diagram is drawn with 50% probability ellipsoids as depicted in FIG. 2.

[8] = compared with (ProProGly)10 chains; Chopra and Ananthanarayanan (1982); cited from earlier work
[9] = value from Holmgen et al. Nature 392:666-667 (1998); cited from earlier work
[10] = mean values from two molecules in ref 18
[11] = values from Bretscher et al. (2001)
[12] = mean values for Hyp in 13 (Bella et al. 1994; Miles and Burjanadze 2001)

Molecule: COC(=O)[C@@H]1C[C@@H](O)CN1C(C)=O [Ac-Hyp-OMe]
φ [1, 10]: −57.0 °
ψ [1, 10]: 150.8 °
ω [1, 10]: −178.8 °
Kt/c [2, 11]: 6.1

triple-helix stability compared with Hyp (or Mop) ([3]; in water, no value or method printed): less stable
Molecule: (ProEopGly)10

Molecule: COC(=O)[C@@H]1C[C@@H](F)CN1C(C)=O [Ac-Flp-OMe]
φ [1, 10]: −55.0 °
ψ [1, 10]: 140.5 °
ω [1, 10]: −178.9 °
Kt/c [2, 11]: 6.7

Molecule: (ProProGly)10
melting temperature of a triple helix [4]: 24 °C
T° (where ΔG=0) ([5]; data of Kobayashi and coworkers (Nishi et al. 2005)): 71.9 °C

stability of triple helix compared with triple helical peptide 1 ([3]; aqueous ethylene glycol): more stable
Tm, water [3]: 70.1 °C
Tm, EG(aq) [3]: 89.1 °C
Tm (DSC exotherm maxima) ([6]; 50 mM HOAc): 73.8 °C
TΔS ([6]; at Tm 73.8° C., calculated from ΔH and Tm): -25.2 kcal/mol
ΔH ([6]; per mole of monomer, 50 mM HOAc, at 73.8° C.): -27.9 kcal/mol
ΔG ([6]; ΔG=ΔH−TΔS, at 73.8° C.): -2.7 kcal/mol
Molecule: (ProMopGly)10 [Peptide 2]
conformational stability of triple helices compared with those of 1 ([3]; in water (50 mM HOAc)): substantially more conformational stability

φ [7]: −58.1 ± 0.1 °
ψ [7]: 147.7 ± 0.1 °
ω [7]: −179.7 ± 0.1 °
Oi-1...C′i=Oi angle ([7]; n→π* interaction): 94.6 °
Oi-1...C′i=Oi distance ([7]; n→π* interaction): 2.84 Å
Molecule: COC(=O)[C@@H]1C[C@@H](OC)CN1C(C)=O [Ac-Mop-OMe, N-(2-^13CH3-Acetyl)-(2S,4R)-4-methoxyproline methyl ester]

Molecule: (ProHypGly)10 [Peptide 1]
Tm, water [3]: 62.0 °C
Tm, EG(aq) [3]: 77.1 °C
rate at which chains fold into a triple helix [8]: substantially greater
melting temperature of a triple helix [4]: 58 °C
ΔG [5]: −2.0^c kcal/mol
ΔG ([5]; listed as (ProHypGly)10): -2.0 kcal/mol
TΔS [5]: −33.2^c kcal/mol
ΔH [5]: −35.2^c kcal/mol
Tm (DSC exotherm maxima) ([6]; 50 mM HOAc): 64.3 °C
TΔS ([6]; at 64.3° C.): -27.3 kcal/mol
ΔG ([6]; at 64.3° C.): -2.2 kcal/mol
ΔH ([6]; at 64.3° C.): -29.5 kcal/mol
φ [1, 12]: −59.6 °
ψ [1, 12]: 149.8 °
ω [1, 12]: 178.5 °
Kt/c ([2]; Hyp in 13 (triple helix)): ∞

Molecule: (ProFlpGly)10 [Peptide 3]
ΔG [5]: −3.3^c kcal/mol
TΔS [5]: −17.2^c kcal/mol
ΔH [5]: −20.5^c kcal/mol
Tm, water [9]: 91^d ° C.
